Measured values reported in patent US20260306639A1, “DEGRADER FOR DECOMPOSING CMET PROTEIN, AND PHARMACEUTICAL COMPOSITION COMPRISING SAME” (INNOCURE THERAPEUTICS, INC., priority 2022, published 2026).

System: c-MET
Test: c-MET protein degradation (Simple Western), MKN-45 cells
Type: cell-based, human
Settings: MKN-45 gastric cancer cells, c-MET overexpressing; 24 hours
Method: In order to assess the resolution of the compound of the present invention for c-MET expressed in cells, cells were dispensed in a 12-well plate at a concentration of 2×10^5 cells/well, and then gastric cancer cell lines were treated with samples for 24 hours and lung cancer cell lines were treated for 48 hours. Cell lysates were collected using a scraper on ice, centrifuged at 4° C. 15,000 rpm for 30 min to obtain a protein-containing supernatant. Protein expression was then measured using the Simple Western Automated Western Blot System Abby instrument using 3 μg of protein for each sample. SDS and heat-induced denaturation proteins were separated by molecular weight, attached to capillary, reacted with anti-c-MET or anti-GAPDH antibodies, which are primary antibodies, and then reacted with HRP-conjugated secondary antibodies, and analyzed the protein expression signal with compass software. Protein expression was normalized based on the expression value of GAPDH, and protein development in each sample was measured as a percentage (%) based on 100% of samples treated with 0.1% DMSO carriers, and DC50 (concentration of a compound where 50% protein inhibition is achieved) was calculated from the change in protein expression amount due to compound treatment.

| DC50 [nM] | Compound |
| --- | --- |
| < 100 | Cc1nn(C2CCC(=O)NC2=O)c(=O)c2ccc(N3CCN(C(=O)CCN4CCC(COc5cnc(-c6cccc(Cn7nc(-c8cccc(C#N)c8)ccc7=O)c6)nc5)CC4)CC3)cc12 (centres unmarked) [ICT-0001224] |
| < 100 | Cc1nn(C2CCC(=O)NC2=O)c(=O)c2cc(N3CCC(N4CCN(C(=O)CN5CCC(COc6cnc(-c7cccc(Cn8nc(-c9cccc(C#N)c9)ccc8=O)c7)nc6)CC5)CC4)CC3)ccc12 (centres unmarked) [ICT-0001233] |
| < 100 | Cn1cc(-c2cnc3c(nnn3C[C@@H]3CN(c4ncc(-c5ccc(CN6CCN(C(=O)CCCNc7ccc8c(=O)n(C9CCC(=O)NC9=O)ncc8c7)CC6)cc5)cn4)CCO3)n2)cn1 (stereo partly drawn) [ICT-0000922, 3-{6-[(4-{4-[(4-{2-[(2S)-2-{[5-(1-methyl-1H-pyrazole-4-yl)-1H-[1,2,3]triazolo[4,5-b]pyrazine-1-yl]methyl}morpholine-4-il]pyrimidine-5-yl}phenyl)methyl]piperazine-1-yl}-4-oxobutyl)amino]-1-oxo-1,2-dihydroptalazine-2-yl}piperidine-2,6-dione] |
| < 100 | Cc1nn(C2CCC(=O)NC2=O)c(=O)c2ccc(NCCOCCOCCOCCOCCC(=O)N3CCC(COc4cnc(-c5cccc(Cn6nc(-c7cccc(C#N)c7)ccc6=O)c5)nc4)CC3)cc12 (centres unmarked) [ICT-0001091] |
| < 100 | Cn1cc(-c2cnc3c(nnn3C[C@@H]3CN(c4ncc(-c5ccc(CN6CCN(C(=O)CN7CCN(c8ccc9c(=O)n(C%10CCC(=O)NC%10=O)ncc9c8)CC7)CC6)cc5)cn4)CCO3)n2)cn1 (some centres unmarked) [ICT-0001109] |
| < 100 | N#Cc1cccc(-c2ccc(=O)n(Cc3cccc(-c4ncc(OCC5CCN(CC(=O)N6CCN(c7ccc8c(=O)n(C9CCC(=O)NC9=O)ncc8c7)CC6)CC5)cn4)c3)n2)c1 (centres unmarked) [ICT-0001221] |
| > 1000 | Cc1nn(C2CCC(=O)NC2=O)c(=O)c2cc(N3CCC(C(=O)NCCCNC(=O)CN4CCC(COc5cnc(-c6cccc(Cn7nc(-c8cccc(C#N)c8)ccc7=O)c6)nc5)CC4)CC3)ccc12 (centres unmarked) [ICT-0001238] |
| < 100 | N#Cc1cccc(-c2ccc(=O)n(Cc3cccc(-c4ncc(OCC5CCN(CCC(=O)N6CCN(c7ccc8c(=O)n(C9CCC(=O)NC9=O)ncc8c7)CC6)CC5)cn4)c3)n2)c1 (centres unmarked) [ICT-0001223] |
| 100 to 1000 | Cc1nn(C2CCC(=O)NC2=O)c(=O)c2ccc(N3CCN(C(=O)CCCCN4CCC(COc5cnc(-c6cccc(Cn7nc(-c8cccc(C#N)c8)ccc7=O)c6)nc5)CC4)CC3)cc12 (centres unmarked) [ICT-0001250] |
| < 100 | Cc1nn(C2CCC(=O)NC2=O)c(=O)c2cc(N3CCN(C(=O)CCCN4CCC(COc5cnc(-c6cccc(Cn7nc(-c8cccc(C#N)c8)ccc7=O)c6)nc5)CC4)CC3)ccc12 (centres unmarked) [ICT-0001228] |
| < 100 | Cn1cc(-c2cnc3c(nnn3C[C@@H]3CN(c4ncc(-c5ccc(CN6CCN(C(=O)CCCCCNc7ccc8c(=O)n(C9CCC(=O)NC9=O)ncc8c7)CC6)cc5)cn4)CCO3)n2)cn1 (stereo partly drawn) [ICT-0000923, 3-{6-[(6-{4-[(4-{2-[(2S)-2-{[5-(1-methyl-1H-pyrazole-4-yl)-1H-[1,2,3]triazolo[4,5-b]pyrazine-1-yl]methyl}morpholine-4-day]pyrimidine-5-yl}phenyl)methyl]piperazine-1-yl}-6-oxohexyl)amino]-1-oxo-1,2-dihydrophthalazine-2-yl}piperidine-2,6-dione] |
| < 100 | Cc1nn(C2CCC(=O)NC2=O)c(=O)c2cc(N3CCC(N4CCN(CC(=O)N5CCC(COc6cnc(-c7cccc(Cn8nc(-c9cccc(C#N)c9)ccc8=O)c7)nc6)CC5)CC4)CC3)ccc12 (centres unmarked) [ICT-0001270] |
| 100 to 1000 | N#Cc1cccc(-c2ccc(=O)n(Cc3cccc(-c4ncc(OCC5CCN(C(=O)CCCCCNc6ccc7c(=O)n(C8CCC(=O)NC8=O)ncc7c6)CC5)cn4)c3)n2)c1 (centres unmarked) [ICT-0000984, 3-(1-{[3-(5-{[1-(6-{[2-(2,6-dioxopiperidin-3-yl)-1-oxo-1,2-dihydroptalazine-6-yl]amino}hexanoyl)piperidine-4-il]methoxy}pyrimidine-2-yl)phenyl]methyl}-6-oxo-1,6-dihydropyridazine-3-yl)benzonitrile] |
| < 100 | Cc1nn(C2CCC(=O)NC2=O)c(=O)c2cc(N3CCN(c4ccc(NCC(=O)N5CCC(COc6cnc(-c7cccc(Cn8nc(-c9cccc(C#N)c9)ccc8=O)c7)nc6)CC5)cc4)CC3)ccc12 (centres unmarked) [ICT-0001262, 3-(1-(3-(5-((1-((4-(4-(3-(2,6-dioxopiperidin-3-yl)-1-methyl-4-oxo-3,4-dihydropthalazine-6-yl)piperazine-1-yl)phenyl)glycy)piperidine-4-il)methoxy)pyrimidine-2-yl)benzyl)6-oxo-1,6-dihydropyridazine-3-yl)benzonitrile] |
| < 100 | Cc1nn(C2CCC(=O)NC2=O)c(=O)c2cc(N3CCN(CC4CCN(C(=O)CN5CCC(COc6cnc(-c7cccc(Cn8nc(-c9cccc(C#N)c9)ccc8=O)c7)nc6)CC5)CC4)CC3)ccc12 (centres unmarked) [ICT-0001195] |
| < 100 | Cc1nn(C2CCC(=O)NC2=O)c(=O)c2ccc(N3CCN(C4CCN(CC(=O)N5CCC(COc6cnc(-c7cccc(Cn8nc(-c9cccc(C#N)c9)ccc8=O)c7)nc6)CC5)CC4)CC3)cc12 (centres unmarked) [ICT-0001255] |
| < 100 | Cn1cc(-c2cnc3c(nnn3C[C@@H]3CN(c4ncc(-c5ccc(CN6CCN(C(=O)CCCCNc7cccc8cnn(C9CCC(=O)NC9=O)c(=O)c78)CC6)cc5)cn4)CCO3)n2)cn1 (stereo partly drawn) [ICT-0000959, 3-{8-[(5-{4-[(4-{2-[(2S)-2-{[5-(1-methyl-1H-pyrazole-4-yl)-1H-[1,2,3]triazolo[4,5-b]pyrazine-1-yl]methyl}morpholine-4-il]pyrimidine-5-yl}phenyl)methyl]piperazine-1-yl}-5-oxopentyl)amino]-1-oxo-1,2-dihydropthalazine-2-yl}piperidine-2,6-dione] |
| < 100 | Cc1nn(C2CCC(=O)NC2=O)c(=O)c2cc(N3CCN(C(=O)CCN4CCC(COc5cnc(-c6cccc(Cn7nc(-c8cccc(C#N)c8)ccc7=O)c6)nc5)CC4)CC3)ccc12 (centres unmarked) [ICT-0001225] |
| < 100 | N#Cc1cccc(-c2ccc(=O)n(Cc3cccc(-c4ncc(OCC5CCN(C(=O)COCCOCCNc6ccc7c(=O)n(C8CCC(=O)NC8=O)ncc7c6)CC5)cn4)c3)n2)c1 (centres unmarked) [ICT-0000986, 3-{1-[(3-{5-[(1-{2-[2-(2-{[2-(2,6-dioxopiperidin-3-yl)-1-oxo-1,2-dihydropthalazine-6-yl]amino}ethoxy)ethoxy]acetyl}piperidine-4-il)methoxy]pyrimidine-2-yl}phenyl)methyl]-6-oxo-1,6-dihydropyridazine-3-yl}benzonitrile] |
| > 1000 | Cn1cc(-c2cnc3c(nnn3C[C@@H]3CN(c4ncc(-c5ccc(CN6CCN(C(=O)COCCOCCOCCNc7ccc8c(=O)n(C9CCC(=O)NC9=O)ncc8c7)CC6)cc5)cn4)CCO3)n2)cn1 (stereo partly drawn) [ICT-0000938, 3-[6-(12-{4-[(4-{2-[(2S)-2-{[5-(1-methyl-1H-pyrazole-4-yl)-1H-[1,2,3]triazolo[4,5-b]pyrazine-1-yl]methyl}morpholine-4-yl]pyrimidine-5-yl}phenyl)methyl]piperazine-1-yl}-12-oxo-4,7,10-trioxa-1-azadodecane-1-yl)-1-oxo-1,2-dihydroptalazine-2-yl]piperidine-2,6-dione] |
| 100 to 1000 | Cn1cc(-c2cnc3c(nnn3C[C@@H]3CN(c4ncc(-c5ccc(CN6CCN(C(=O)CCOCCOCCNc7cccc8cnn(C9CCC(=O)NC9=O)c(=O)c78)CC6)cc5)cn4)CCO3)n2)cn1 (some centres unmarked) [ICT-0000940] |
| < 100 | Cc1nn(C2CCC(=O)NC2=O)c(=O)c2cc(N3CCN(C(=O)CCCCN4CCC(COc5cnc(-c6cccc(Cn7nc(-c8cccc(C#N)c8)ccc7=O)c6)nc5)CC4)CC3)ccc12 (centres unmarked) [ICT-0001251] |
| < 100 | Cc1nn(C2CCC(=O)NC2=O)c(=O)c2cc(N3CCN(CCCCC(=O)N4CCC(COc5cnc(-c6cccc(Cn7nc(-c8cccc(C#N)c8)ccc7=O)c6)nc5)CC4)CC3)ccc12 (centres unmarked) [ICT-0001217] |
| < 100 | Cc1nn(C2CCC(=O)NC2=O)c(=O)c2ccc(N3CCN(C4CCN(C(=O)CN5CCC(COc6cnc(-c7cccc(Cn8nc(-c9cccc(C#N)c9)ccc8=O)c7)nc6)CC5)CC4)CC3)cc12 (centres unmarked) [ICT-0001237] |
| 100 to 1000 | Cc1nn(C2CCC(=O)NC2=O)c(=O)c2ccc(NCCCC(=O)N3CCC(COc4cnc(-c5cccc(Cn6nc(-c7cccc(C#N)c7)ccc6=O)c5)nc4)CC3)cc12 (centres unmarked) [ICT-0000989] |
| 100 to 1000 | Cc1nn(C2CCC(=O)NC2=O)c(=O)c2ccc(N3CCN(c4ccc(NCC(=O)N5CCC(COc6cnc(-c7cccc(Cn8nc(-c9cccc(C#N)c9)ccc8=O)c7)nc6)CC5)cc4)CC3)cc12 (centres unmarked) [ICT-0001240, 3-(1-(3-(5-((1-((4-(4-(2-(2,6-dioxopiperidin-3-yl)-4-methyl-1-oxo-1,2-dihydropthalazine-6-yl)piperazine-1-yl)phenyl)glycyl)piperidine-4-il)methoxy)pyrimidine-2-yl)benzyl)6-oxo-1,6-dihydropyridazine-3-yl)benzonitrile] |
| < 100 | N#Cc1cccc(-c2ccc(=O)n(Cc3cccc(-c4ncc(OCC5CCN(C(=O)CCN6CCN(c7ccc8c(=O)n(C9CCC(=O)NC9=O)ncc8c7)CC6)CC5)cn4)c3)n2)c1 (centres unmarked) [ICT-0001199, 3-(1-{[3-(5-{[1-(3-{4-[2-(2,6-dioxopiperidin-3-yl)-1-oxo-1,2-dihydropthalazine-6-yl]piperazine-1-yl}propanoyl)piperidine-4-il]methoxy}pyrimidin-2-yl)phenyl]methyl}-6-oxo-1,6-dihydropyridazine-3-yl)benzonitrile] |
| < 100 | Cc1nn(C2CCC(=O)NC2=O)c(=O)c2ccc(NCCOCCOCC(=O)N3CCC(COc4cnc(-c5cccc(Cn6nc(-c7cccc(C#N)c7)ccc6=O)c5)nc4)CC3)cc12 (centres unmarked) [ICT-0001087] |
| < 100 | Cc1nn(C2CCC(=O)NC2=O)c(=O)c2ccc(N3CCN(C[C@@H]4CN(C(=O)CN5CCC(COc6cnc(-c7cccc(Cn8nc(-c9cccc(C#N)c9)ccc8=O)c7)nc6)CC5)CCO4)CC3)cc12 (some centres unmarked) [ICT-0001258] |
